Measurements reported in US20240294541A1, “COMPOUNDS CONSTITUTING C20-MODIFIED SALINOMYCIN DERIVATIVES, A METHOD FOR OBTAINING THE SAME, A COMPOSITION CONTAINING THE SAME AND A USE OF SAID COMPOUNDS” (FILECLO SPOLKA Z OGRANICZONA ODPOWIEDZIALNOSCIA, priority 2021, published 2024).
Read-outs that look alike come from different tables or passages of the source.

Legend:
Format in all cases: cell-based
[1] = tested on: NCI-H358 (human lung cancer); assay: cells; details: Table 4; NCI-H358 human lung cancer cells; read-out: IC50 (nM) NCI-H358
[2] = tested on: SNU-16 (human gastric cancer); assay: cells; details: for SNU-16 SI: selectivity coefficient vs normal BALB/3T3 cells
[3] = tested on: PLC/PRF/5 (human liver cancer); assay: cells; details: for PLC/PRF/5 SI: selectivity coefficient vs normal BALB/3T3 cells
[4] = tested on: MIA PaCa-2 (human pancreatic cancer); assay: cells; details: for MIA PaCa-2 SI: selectivity coefficient vs normal BALB/3T3 cells
Hs294T (human melanoma) = assay: cells; details: for IC50: Hs 294T; for Hs294T SI: selectivity coefficient vs normal BALB/3T3 cells
[5] = tested on: KG-1 (human acute myeloid leukaemia); assay: In vitro cytotoxicity, MTT assay, KG-1; details: for IC50: Homo sapiens, 72 h with compound, MTT, n/a = non-active compound; for KG-1 SI: selectivity coefficient vs normal BALB/3T3 cells
[6] = tested on: A2780 (human ovarian cancer); assay: In vitro cytotoxicity, SRB assay, A2780; details: for IC50: Homo sapiens; for A2780 SI: selectivity coefficient vs normal BALB/3T3 cells
A375 (human melanoma) = assay: In vitro cytotoxicity, SRB assay, A375; details: for IC50: Homo sapiens; for A375 SI: selectivity coefficient vs normal BALB/3T3 cells
[7] = tested on: NCI-H23 (human lung cancer); assay: In vitro cytotoxicity, SRB assay, NCI-H23; details: for IC50: Homo sapiens; for NCI-H23 SI: selectivity coefficient vs normal BALB/3T3 cells
[8] = tested on: PFSK-1 (malignant primitive neuroectodermal tumour); assay: In vitro cytotoxicity, SRB assay, PFSK-1; details: for IC50: Homo sapiens; for PFSK-1 SI: selectivity coefficient vs normal BALB/3T3 cells
[9] = tested on: A2780Cis (cisplatin-resistant human ovarian cancer); assay: In vitro cytotoxicity, SRB assay, A2780Cis; details: for IC50: Homo sapiens, A2780cis, 72 h, read-out: A2780Cis IC50 (nM)
[10] = tested on: BALB/3T3 (normal mouse fibroblasts); assay: In vitro cytotoxicity, SRB assay, normal BALB/3T3 fibroblasts; details: Mus musculus, BALB/3T3; normal cells; 72 h with compound, SRB; n/a = non-active compound; read-out: BALB/3T3 IC50
[11] = Table 4, SNU-16 human gastric cancer cells, read-out: IC50 (nM) SNU-16
[12] = Table 4, PLC/PRF/5 human liver cancer cells, read-out: IC50 (nM) PLC/PRF/5
[13] = Table 4, MIA PaCa-2 human pancreatic cancer cells, read-out: IC50 (nM) MIA PaCa-2
[14] = Table 4, Hs294T human melanoma cells, read-out: IC50 (nM) Hs294T
[15] = Homo sapiens, SNU-16, 72 h with compound, MTT, n/a = non-active compound, read-out: SNU-16 IC50
[16] = Homo sapiens, PLC-PRF-5, 72 h with compound, SRB, n/a = non-active compound, read-out: PLC/PRF/5 IC50
[17] = A2780, 72 h with compound, SRB, n/a = non-active compound, read-out: A2780 IC50
[18] = A-375, 72 h with compound, SRB, n/a = non-active compound, read-out: A375 IC50
[19] = NCI-H23, 72 h with compound, SRB, n/a = non-active compound, read-out: NCI-H23 IC50
[20] = PFSK-1, 72 h with compound, SRB, n/a = non-active compound, read-out: PFSK-1 IC50
[21] = Homo sapiens, MIA PaCa-2, 72 h with compound, SRB, n/a = non-active compound, read-out: MIA PaCa-2 IC50
[22] = Homo sapiens, 72 h with compound, SRB, n/a = non-active compound, read-out: Hs294T IC50

Compound | IC50 [2, 15] [nM] | SNU-16 SI [2] | IC50 [5] [nM] | KG-1 SI [5] | IC50 [3, 16] [nM] | PLC/PRF/5 SI [3] | IC50 [6, 17] [nM] | A2780 SI [6] | IC50 (A375 (human melanoma); [18]) [nM] | A375 SI (A375 (human melanoma)) | NCI-H23 SI [7] | PFSK-1 SI [8] | IC50 [4, 21] [nM] | MIA PaCa-2 SI [4] | A2780Cis RI [9] | A2780Cis SI [9] | IC50 [9] [nM] | IC50 [10] [nM] | IC50 (Hs294T (human melanoma); [22]) [nM] | Hs294T SI (Hs294T (human melanoma)) | also measured
CC[C@@H](C(=O)[C@@H](C)[C@@H](O)[C@H](C)[C@@H]1O[C@@H]([C@@H](CC)C(=O)O)CC[C@@H]1C)[C@H]1O[C@]2(C=C[C@@H](NC(=O)OCc3ccccc3)[C@]3(CC[C@@](C)([C@H]4CC[C@](O)(CC)[C@H](C)O4)O3)O2)[C@H](C)C[C@@H]1C [FLC-00431-1•Na] | – | – | – | – | – | – | – | – | – | – | – | – | – | – | – | – | – | – | – | – | IC50 [1]: 56.1 nM; IC50 [2, 11]: 143 nM; IC50 [3, 12]: 5.8 nM; IC50 [4, 13]: 28.9 nM; IC50 (Hs294T (human melanoma); [14]): 115 nM
CC[C@@H](C(=O)[C@@H](C)[C@@H](O)[C@H](C)[C@@H]1O[C@@H]([C@@H](CC)C(=O)O)CC[C@@H]1C)[C@H]1O[C@]2(C=C[C@@H](NC(=O)Oc3ccccc3)[C@]3(CC[C@@](C)([C@H]4CC[C@](O)(CC)[C@H](C)O4)O3)O2)[C@H](C)C[C@@H]1C [FLC-00429-1•Na] | – | – | – | – | – | – | – | – | – | – | – | – | – | – | – | – | – | – | – | – | IC50 [1]: 76.1 nM; IC50 [2, 11]: 168 nM; IC50 [3, 12]: 27 nM; IC50 [4, 13]: 39.8 nM; IC50 (Hs294T (human melanoma); [14]): 115 nM
CC[C@@H](C(=O)[C@@H](C)[C@@H](O)[C@H](C)[C@@H]1O[C@@H]([C@@H](CC)C(=O)O)CC[C@@H]1C)[C@H]1O[C@]2(C=C[C@@H](NC(=S)Nc3cccc(C(F)(F)F)c3)[C@]3(CC[C@@](C)([C@H]4CC[C@](O)(CC)[C@H](C)O4)O3)O2)[C@H](C)C[C@@H]1C [FLC-00386-1] | – | – | – | – | – | – | – | – | – | – | – | – | – | – | – | – | – | – | – | – | IC50 [1]: 51.3 nM; IC50 [2, 11]: 10.1 nM; IC50 [3, 12]: 10.2 nM; IC50 [4, 13]: 11.3 nM; IC50 (Hs294T (human melanoma); [14]): 147 nM
CC[C@@H](C(=O)[C@@H](C)[C@@H](O)[C@H](C)[C@@H]1O[C@@H]([C@@H](CC)C(=O)O)CC[C@@H]1C)[C@H]1O[C@]2(C=C[C@@H](NC(=S)Nc3ccc(Cl)cc3)[C@]3(CC[C@@](C)([C@H]4CC[C@](O)(CC)[C@H](C)O4)O3)O2)[C@H](C)C[C@@H]1C [FLC-00378-1] | 3.21 | 3.2 | 19.1 | 0.5 | 2.58 | 3.9 | 0.55 | 18.3 | 36.6 | 0.3 | 2.5 | 3.1 | 18.4 | 0.5 | 0.3 | 57.0 | 0.18 | 10.1 | 29.4 | 0.3 | IC50 [7, 19]: 4.12 nM; IC50 [8, 20]: 3.28 nM
CCOC(=O)CNC(=S)N[C@@H]1C=C[C@]2(O[C@H]([C@@H](CC)C(=O)[C@@H](C)[C@@H](O)[C@H](C)[C@@H]3O[C@@H]([C@@H](CC)C(=O)O)CC[C@@H]3C)[C@@H](C)C[C@H]2C)O[C@@]12CC[C@@](C)([C@H]1CC[C@](O)(CC)[C@H](C)O1)O2 [FLC-00352-1] | 52.8 | 2.2 | 30 | 3.8 | 32.9 | 3.5 | 2.14 | 53.8 | 459 | 0.3 | 0.5 | 2.5 | 50.9 | 2.3 | 1.8 | 30.4 | 3.77 | 115 | 416 | 0.3 | IC50 [7, 19]: 234 nM; IC50 [8, 20]: 45.2 nM
CC[C@@H](C(=O)[C@@H](C)[C@@H](O)[C@H](C)[C@@H]1O[C@@H]([C@@H](CC)C(=O)O)CC[C@@H]1C)[C@H]1O[C@]2(C=C[C@@H](NC(=O)Nc3ccc(F)cc3)[C@]3(CC[C@@](C)([C@H]4CC[C@](O)(CC)[C@H](C)O4)O3)O2)[C@H](C)C[C@@H]1C [FLC-00363-1] | 4.46 | 14.0 | 11.7 | 5.3 | 13 | 4.8 | 2 | 31.1 | 37.3 | 1.7 | 22.4 | 15.3 | 19.3 | 3.2 | 0.7 | 44.3 | 1.41 | 62.2 | 27.3 | 2.3 | IC50 [7, 19]: 2.78 nM; IC50 [8, 20]: 4.06 nM
CC[C@@H](C(=O)[C@@H](C)[C@@H](O)[C@H](C)[C@@H]1O[C@@H]([C@@H](CC)C(=O)O)CC[C@@H]1C)[C@H]1O[C@]2(C=C[C@@H](NC(=O)Nc3cc(C(F)(F)F)cc(C(F)(F)F)c3)[C@]3(CC[C@@](C)([C@H]4CC[C@](O)(CC)[C@H](C)O4)O3)O2)[C@H](C)C[C@@H]1C [FLC-00344-1 Na] | 106 | 10.0 | 286 | 3.7 | 1290 | 0.8 | 21 | 50.5 | 2310 | 0.5 | 3.7 | 9.5 | 383 | 2.8 | 1.2 | 43.8 | 24.3 | 1060 | 2570 | 0.4 | IC50 [7, 19]: 285 nM; IC50 [8, 20]: 112 nM
CC[C@@H](C(=O)[C@@H](C)[C@@H](O)[C@H](C)[C@@H]1O[C@@H]([C@@H](CC)C(=O)O)CC[C@@H]1C)[C@H]1O[C@]2(C=C[C@@H](NC(=O)Nc3ccccc3C(F)(F)F)[C@]3(CC[C@@](C)([C@H]4CC[C@](O)(CC)[C@H](C)O4)O3)O2)[C@H](C)C[C@@H]1C [FLC-00381-1] | 63.8 | 2.5 | 36.4 | 4.4 | 62.4 | 2.5 | 13.4 | 11.9 | 189 | 0.8 | 3.4 | 3.2 | 69.6 | 2.3 | 0.5 | 21.7 | 7.34 | 159 | 138 | 1.2 | IC50 [7, 19]: 46.3 nM; IC50 [8, 20]: 50.4 nM
CC[C@@H](C(=O)[C@@H](C)[C@@H](O)[C@H](C)[C@@H]1O[C@@H]([C@@H](CC)C(=O)O)CC[C@@H]1C)[C@H]1O[C@]2(C=C[C@@H](NC(=S)Nc3cc(Cl)cc(Cl)c3)[C@]3(CC[C@@](C)([C@H]4CC[C@](O)(CC)[C@H](C)O4)O3)O2)[C@H](C)C[C@@H]1C [FLC-00380-1] | 6.6 | 28.9 | 6.44 | 29.6 | 19.9 | 9.6 | – | 85.7 | – | 1.0 | 36.6 | 31.6 | 48.2 | 4.0 | 0.2 | 483.3 | 0.4 | 191 | 178 | 1.1 | IC50 ([6]; A2780, 72 h, read-out: A2780 IC50 (nM)): 2.23 nM; IC50 (A375 (human melanoma); A-375, 72 h, read-out: A375 IC50 (nM)): 195 nM; IC50 ([7]; NCI-H23, 72 h, read-out: NCI-H23 IC50 (nM)): 5.22 nM; IC50 ([8]; PFSK-1, 72 h, read-out: PFSK-1 IC50 (nM)): 6.05 nM
CCNC(=O)N[C@@H]1C=C[C@]2(O[C@H]([C@@H](CC)C(=O)[C@@H](C)[C@@H](O)[C@H](C)[C@@H]3O[C@@H]([C@@H](CC)C(=O)O)CC[C@@H]3C)[C@@H](C)C[C@H]2C)O[C@@]12CC[C@@](C)([C@H]1CC[C@](O)(CC)[C@H](C)O1)O2 [FLC-00358-1] | 67.9 | 3.3 | 67.7 | 3.3 | 52.8 | 4.2 | 3.32 | 67.0 | 208 | 1.1 | 2.0 | 6.9 | 45.6 | 4.9 | 0.7 | 98.1 | 2.27 | 223 | 1640 | 0.1 | IC50 [7, 19]: 113 nM; IC50 [8, 20]: 32.3 nM
